The supplement of paper PMC11451515

Tested on: P12-Ichikawa
Assay: cell viability relative to DMSO control; higher = less cytotoxic
Conditions: 48 h
Procedure, shortened: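 Viability is a per-plate percentage relative to DMSO wells, with cell-free wells as background. CellTiter-Glo One luminescence was read after 48 h at 37°C on 1536-well plates (5 μl) of NOMO1 or SEM (500 cells/well) or P12-Ichikawa (1000 cells/well) leukemia cells. The cells had been adapted for at least four passages in each medium and pin-dosed with library compounds in DMSO from 47 μM to 0.79 nM in 11 threefold steps.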

[1] = HPLM + 10% dialyzed FBS, 0.000781 µM
[2] = HPLM + 10% dialyzed FBS, 0.00234 µM
[3] = HPLM + 10% dialyzed FBS, 0.00702 µM
[4] = HPLM + 10% dialyzed FBS, 0.0211 µM
[5] = HPLM + 10% dialyzed FBS, 0.0632 µM
[6] = HPLM + 10% dialyzed FBS, 0.19 µM
[7] = HPLM + 10% dialyzed FBS, 0.569 µM
[8] = HPLM + 10% dialyzed FBS, 1.71 µM
[9] = HPLM + 10% dialyzed FBS, 5.12 µM
[10] = HPLM + 10% dialyzed FBS, 15.4 µM
[11] = HPLM + 10% dialyzed FBS, 46.1 µM
[12] = RPMI 5 mM glucose + 10% FBS, 0.000781 µM
[13] = RPMI 5 mM glucose + 10% FBS, 0.00234 µM
[14] = RPMI 5 mM glucose + 10% FBS, 0.00702 µM
[15] = RPMI 5 mM glucose + 10% FBS, 0.0211 µM
[16] = RPMI 5 mM glucose + 10% FBS, 0.0632 µM
[17] = RPMI 5 mM glucose + 10% FBS, 0.19 µM
[18] = RPMI 5 mM glucose + 10% FBS, 0.569 µM
[19] = RPMI 5 mM glucose + 10% FBS, 1.71 µM
[20] = RPMI 5 mM glucose + 10% FBS, 5.12 µM
[21] = RPMI 5 mM glucose + 10% FBS, 15.4 µM
[22] = RPMI 5 mM glucose + 10% FBS, 46.1 µM
[23] = RPMI 5 mM glucose + 10% dialyzed FBS, 0.000781 µM
[24] = RPMI 5 mM glucose + 10% dialyzed FBS, 0.00234 µM
[25] = RPMI 5 mM glucose + 10% dialyzed FBS, 0.00702 µM
[26] = RPMI 5 mM glucose + 10% dialyzed FBS, 0.0211 µM
[27] = RPMI 5 mM glucose + 10% dialyzed FBS, 0.0632 µM
[28] = RPMI 5 mM glucose + 10% dialyzed FBS, 0.19 µM
[29] = RPMI 5 mM glucose + 10% dialyzed FBS, 0.569 µM
[30] = RPMI 5 mM glucose + 10% dialyzed FBS, 1.71 µM
[31] = RPMI 5 mM glucose + 10% dialyzed FBS, 5.12 µM
[32] = RPMI 5 mM glucose + 10% dialyzed FBS, 15.4 µM
[33] = RPMI 5 mM glucose + 10% dialyzed FBS, 46.1 µM

| Structure (SMILES) | cell viability [1] [%] | cell viability [2] [%] | cell viability [3] [%] | cell viability [4] [%] | cell viability [5] [%] | cell viability [6] [%] | cell viability [7] [%] | cell viability [8] [%] | cell viability [9] [%] | cell viability [10] [%] | cell viability [11] [%] | cell viability [12] [%] | cell viability [13] [%] | cell viability [14] [%] | cell viability [15] [%] | cell viability [16] [%] | cell viability [17] [%] | cell viability [18] [%] | cell viability [19] [%] | cell viability [20] [%] | cell viability [21] [%] | cell viability [22] [%] | cell viability [23] [%] | cell viability [24] [%] | cell viability [25] [%] | cell viability [26] [%] | cell viability [27] [%] | cell viability [28] [%] | cell viability [29] [%] | cell viability [30] [%] | cell viability [31] [%] | cell viability [32] [%] | cell viability [33] [%] |
| --- | --- | --- | --- | --- | --- | --- | --- | --- | --- | --- | --- | --- | --- | --- | --- | --- | --- | --- | --- | --- | --- | --- | --- | --- | --- | --- | --- | --- | --- | --- | --- | --- | --- |
| CC(NCc1ccc2c(c1)[nH]/c(=N\C(=O)c1ccc(-c3cn[nH]c3)s1)n2CC(C)(C)O)C(C)(C)C (centres undefined) | 117 | 112 | 108 | 115 | 117 | 111 | 99.1 | 65 | 29.5 | 25.9 | 2.69 | 109 | 118 | 121 | 123 | 124 | 121 | 102 | 72.9 | 29.8 | 14.7 | 2.33 | 134 | 124 | 120 | 130 | 119 | 122 | 104 | 71 | 31.7 | 24.9 | 3.31 |
| C#Cc1cccc(Nc2ncnc3cc(OC)c(OCCCCCCC(=O)NO)cc23)c1 | 126 | 118 | 121 | 124 | 105 | 69.2 | 29.8 | 8.83 | 6.65 | 6.4 | 2.39 | – | – | – | – | – | – | – | – | – | – | – | – | – | – | – | – | – | – | – | – | – | – |
| CC(C)(C)NC(=O)[C@@H]1CN(Cc2cccnc2)CCN1C[C@@H](O)C[C@@H](Cc1ccccc1)C(=O)N[C@H]1c2ccccc2C[C@H]1O.O=S(=O)(O)O | 102 | 114 | 115 | 120 | 122 | 115 | 121 | 114 | 112 | 104 | 72.6 | 92.1 | 103 | 99.2 | 111 | 116 | 116 | 116 | 117 | 109 | 98 | 66.1 | 105 | 117 | 119 | 123 | 123 | 119 | 121 | 126 | 111 | 99.4 | 59.2 |
| O=C1CCc2ccc(OCCCCN3CCN(c4cccc(Cl)c4Cl)CC3)cc2N1 | 99 | 101 | 99.7 | 85 | 110 | 98.9 | 104 | 104 | 89.9 | 106 | 87.3 | 106 | 110 | 106 | 74.3 | 107 | 101 | 102 | 100 | 106 | 105 | 78.3 | 92.8 | 98.9 | 96.9 | 80.5 | 98.7 | 106 | 100 | 89.2 | 93.6 | 94.1 | 73.1 |
| N#CC(=C(/N)Sc1ccccc1N)/C(C#N)=C(\N)Sc1ccccc1N | 115 | 121 | 120 | 128 | 131 | 125 | 131 | 120 | 126 | 124 | 111 | – | – | – | – | – | – | – | – | – | – | – | – | – | – | – | – | – | – | – | – | – | – |
| O=C1N\2CCC3=C([NH]C4=C3C=CC=C4)C2=N/C5=CC=CC=C15 | 119 | 120 | 128 | 126 | 129 | 130 | 129 | 129 | 132 | 113 | 92.3 | – | – | – | – | – | – | – | – | – | – | – | – | – | – | – | – | – | – | – | – | – | – |
| COc1cc(N[S+](=O)([O-])c2ccc(N)cc2)nc(OC)n1 | 114 | 111 | 116 | 112 | 125 | 115 | 112 | 109 | 110 | 110 | 107 | 102 | 106 | 109 | 110 | 107 | 110 | 110 | 110 | 105 | 95.8 | 103 | 112 | 108 | 114 | 106 | 117 | 113 | 117 | 117 | 104 | 103 | 101 |
| CC(C)c1ccccc1Cc1cc(C(=O)Nc2ccc([S+](=O)([O-])c3ccccc3C(C)(C)C)cc2)c(O)c(O)c1O | 112 | 112 | 111 | 113 | 111 | 110 | 106 | 102 | 101 | 97.2 | 91.5 | 112 | 116 | 116 | 114 | 118 | 115 | 107 | 107 | 108 | 103 | 87.7 | 111 | 112 | 117 | 108 | 107 | 114 | 108 | 107 | 97.1 | 93.3 | 92.9 |
| O=c1[nH]cnc2c1ncn2[C@H]1CC[C@@H](CO)O1 | 95.9 | 101 | 107 | 102 | 99.6 | 105 | 108 | 112 | 105 | 99.6 | 74.1 | 83.3 | 97.3 | 94.6 | 109 | 96.1 | 101 | 104 | 108 | 102 | 91.7 | 65.5 | 83.7 | 101 | 94.3 | 90.1 | 96.8 | 96.5 | 96 | 104 | 97.1 | 84 | 67.1 |
| C#C[C@]1(O)CC[C@H]2[C@@H]3CCc4cc(OC)ccc4[C@H]3CC[C@@]21C | 118 | 104 | 111 | 106 | 110 | 98.5 | 111 | 102 | 101 | 109 | 98.5 | 110 | 101 | 112 | 106 | 113 | 106 | 106 | 108 | 90.7 | 111 | 97.6 | 103 | 101 | 100 | 107 | 114 | 111 | 107 | 107 | 101 | 102 | 97.6 |
